Reference: patent US7396837B2, “Antitumoral analogs of lamellarins” (Pharma Mar, S.A.U., priority 2002, dated 2008)
Like-named read-outs stand apart in the source and are kept apart here.

Legend:
Type in all cases: cell-based
K-562 = experiment: SRB colorimetric cell growth inhibition assay, K-562; conditions: for IC (TGI): read-out: TGI K-562; for GI50: GI=growth inhibition, read-out: GI50 K-562
Method in brief: (§1)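 Human tumour cells continuously exposed to compound in 96-well culture; growth and viability quantified colorimetrically by sulforhodamine B staining. Mean ± SD from triplicate wells; GI (growth inhibition), TGI (total growth inhibition, cytostatic) and LC (cell killing, cytotoxic) parameters derived.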

A-549 = experiment: SRB colorimetric cell growth inhibition assay, A-549; conditions: Homo sapiens; for GI50: GI=growth inhibition, read-out: GI50 A-549; for IC (TGI): read-out: TGI A-549
Method in brief: as §1

SK-MEL-28 = experiment: SRB colorimetric cell growth inhibition assay, SK-MEL-28; conditions: for IC (TGI): total growth inhibition (cytostatic effect), read-out: TGI MEL-28; for CC50: cell killing (cytotoxic effect); for GI50: GI=growth inhibition, read-out: GI50 MEL-28
Method in brief: as §1

HT-29 = experiment: SRB colorimetric cell growth inhibition assay, HT-29; conditions: for GI50: GI=growth inhibition, read-out: GI50 HT-29; for IC (TGI): read-out: TGI HT-29
Method in brief: as §1

LoVo = experiment: SRB colorimetric cell growth inhibition assay, LoVo; conditions: Homo sapiens, LoVo; for GI50: GI=growth inhibition, read-out: GI50 LOVO; for IC (TGI): read-out: TGI LOVO
Method in brief: as §1

LoVo-Dox = experiment: SRB colorimetric cell growth inhibition assay, LoVo-Dox (MDR); conditions: Homo sapiens; for GI50: GI=growth inhibition, read-out: GI50 LOVO-DOX; for IC (TGI): read-out: TGI LOVO-DOX
Method in brief: as §1

DU-145 = experiment: SRB colorimetric cell growth inhibition assay, DU-145; conditions: for GI50: GI=growth inhibition, read-out: GI50 DU-145; for CC50: cell killing (cytotoxic effect)
Method in brief: as §1

LNCaP = experiment: SRB colorimetric cell growth inhibition assay, LNCaP; conditions: Homo sapiens, LNCaP; for GI50: GI=growth inhibition, read-out: GI50 LN-caP; for IC (TGI): total growth inhibition (cytostatic effect), read-out: TGI LN-caP; for CC50: cell killing (cytotoxic effect)
Method in brief: as §1

SK-BR-3 = experiment: SRB colorimetric cell growth inhibition assay, SK-BR-3; conditions: for IC (TGI): total growth inhibition (cytostatic effect), read-out: TGI SK-BR-3; for CC50: cell killing (cytotoxic effect); for GI50: GI=growth inhibition, read-out: GI50 SK-BR-3
Method in brief: as §1

IGROV = experiment: SRB colorimetric cell growth inhibition assay, IGROV; conditions: IGROV; for CC50: cell killing (cytotoxic effect); for GI50: GI=growth inhibition, read-out: GI50 IGROV
Method in brief: as §1

IGROV-ET = experiment: SRB colorimetric cell growth inhibition assay, IGROV-ET (ET-743 resistant); conditions: Homo sapiens; for GI50: GI=growth inhibition, read-out: GI50 IGROV-ET; for IC (TGI): total growth inhibition (cytostatic effect), read-out: TGI IGROV-ET; for CC50: cell killing (cytotoxic effect)
Method in brief: as §1

PANC-1 = experiment: SRB colorimetric cell growth inhibition assay, PANC-1; conditions: Homo sapiens; for GI50: GI=growth inhibition, read-out: GI50 PANC-1; for IC (TGI): read-out: TGI PANC-1
Method in brief: as §1

SKOV-3 = experiment: SRB colorimetric cell growth inhibition assay, SKOV-3; conditions: Homo sapiens; for GI50: SK-OV-3, SKOV-3, GI=growth inhibition, read-out: GI50 SKOV-3; for IC (TGI): total growth inhibition (cytostatic effect), read-out: TGI SKOV-3
Method in brief: (§2)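 Sulforhodamine B colorimetric assay of cell growth and viability, mean ± SD of triplicate wells. Parameters derived: GI (growth inhibition), TGI (total growth inhibition, cytostatic) and LC (cell killing, cytotoxic).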

[1] = SRB colorimetric cell growth inhibition assay, H-MEC-1; conditions: human
Method in brief: as §2

H-MEC-1 = experiment: as above; conditions: Homo sapiens, HMEC-1, H-MEC-1; for GI50: GI=growth inhibition, read-out: GI50 H-MEC-1; for IC (TGI): total growth inhibition (cytostatic effect), read-out: TGI H-MEC-1
Method in brief: as §2

[2] = Homo sapiens, SK-MEL-28, MEL-28
[3] = total growth inhibition (cytostatic effect)

## COc1cc(-c2c3n(c4c(=O)oc5cc(OC(=O)[C@@H](N)C(C)C)c(OC)cc5c24)CCc2cc(OC(=O)[C@@H](N)C(C)C)c(OC)cc2-3)ccc1OC(=O)[C@@H](N)C(C)C [Compound 37]
K-562; Homo sapiens, K562, K-562, TGI=total growth inhibition (cytostatic effect)
  IC (TGI): 1.97 µM
K-562; Homo sapiens, K562, read-out: LC50 K-562, K-562, LC=cell killing (cytotoxic effect)
  CC50: 7.53 µM
K-562; K-562
  GI50: 0.0124 µM
A-549; A549, A-549
  GI50: 1.72 µM
A-549; A549, A-549, TGI=total growth inhibition (cytostatic effect)
  IC (TGI): 3.8 µM
A-549; A549, read-out: LC50 A-549, A-549, LC=cell killing (cytotoxic effect)
  CC50: 8.38 µM
SK-MEL-28; [2]
  IC (TGI): 2.68 µM
SK-MEL-28; Homo sapiens, SK-MEL-28, read-out: LC50 MEL-28, MEL-28
  CC50: 7.95 µM
SK-MEL-28; MEL-28
  GI50: 0.623 µM
HT-29; HT-29
  GI50: 0.0912 µM
HT-29; Homo sapiens, HT-29, HT-29, TGI=total growth inhibition (cytostatic effect)
  IC (TGI): 2 µM
HT-29; Homo sapiens, HT-29, read-out: LC50 HT-29, HT-29, LC=cell killing (cytotoxic effect)
  CC50: 10.9 µM
LoVo; read-out: LC50 LOVO, LOVO, LC=cell killing (cytotoxic effect)
  CC50: 10.8 µM
LoVo
  GI50: 1.79 µM
LoVo; TGI=total growth inhibition (cytostatic effect)
  IC (TGI): 4.4 µM
LoVo-Dox; LOVO-DOX
  GI50: 2.1 µM
LoVo-Dox; LOVO-DOX, TGI=total growth inhibition (cytostatic effect)
  IC (TGI): 4.6 µM
LoVo-Dox; read-out: LC50 LOVO-DOX, LOVO-DOX, LC=cell killing (cytotoxic effect)
  CC50: 10.1 µM
DU-145; DU-145
  GI50: 0.0677 µM
DU-145; DU-145, total growth inhibition (cytostatic effect)
  TGI DU-145: 1.55E−06 Molar
DU-145; Homo sapiens, DU-145, read-out: LC50 DU-145, DU-145
  CC50: 5.62 µM
LNCaP; LN-caP
  GI50: 0.593 µM
  IC (TGI): 2.18 µM
LNCaP; read-out: LC50 LN-caP, LN-caP
  CC50: 5.05 µM
SK-BR-3; Homo sapiens, SK-BR-3, SK-BR-3
  IC (TGI): 2.12 µM
SK-BR-3; Homo sapiens, SK-BR-3, read-out: LC50 SK-BR-3, SK-BR-3
  CC50: 10.6 µM
SK-BR-3; SK-BR-3
  GI50: 0.0576 µM
IGROV; Homo sapiens, read-out: LC50 IGROV, IGROV
  CC50: 5.89 µM
IGROV
  GI50: 0.577 µM
IGROV; [3]
  TGI IGROV: 2.17E−06 Molar
IGROV-ET; IGROV-ET
  GI50: 0.359 µM
  IC (TGI): 2.11 µM
IGROV-ET; read-out: LC50 IGROV-ET, IGROV-ET
  CC50: 8.04 µM
PANC-1; PANC-1, PANC-1
  GI50: 2.15 µM
PANC-1; PANC-1, PANC-1, TGI=total growth inhibition (cytostatic effect)
  IC (TGI): 11 µM
PANC-1; PANC-1, read-out: LC50 PANC-1, PANC-1, LC=cell killing (cytotoxic effect)
  CC50: 11 µM
SKOV-3
  GI50: 1.62 µM
SKOV-3; SK-OV-3, read-out: LC50 SKOV-3
  LC50 (concentration causing 50% net cell killing): 7.87 µM
SKOV-3; SK-OV-3, SKOV-3
  IC (TGI): 3.58 µM
[1]
  LC50 (concentration giving 50% net cell killing): 4.73 µM
H-MEC-1
  GI50: 0.0974 µM
  IC (TGI): 1.26 µM

## COc1cc(-c2c3n(c4c(=O)oc5cc(O)c(OC)cc5c24)CCc2c-3cc(OC)c(OC)c2O)ccc1O [Compound 1]
K-562; Homo sapiens, K562, K-562
  GI50: 0.815 µM
K-562; Homo sapiens, K562, K-562, cell killing (cytotoxic effect), read-out: LC50 K-562
  CC50: 2.97 µM
K-562; Homo sapiens, K562, K-562, total growth inhibition (cytostatic effect)
  IC (TGI): 2.11 µM
A-549; A549, A-549
  GI50: ≥ 1.88 µM
A-549; A549, A-549, cell killing (cytotoxic effect), read-out: LC50 A-549
  CC50: ≥ 1.88 µM
A-549; A549, A-549, total growth inhibition (cytostatic effect)
  IC (TGI): 1.88 µM
SK-MEL-28; [2]
  GI50: 2.24 µM
  IC (TGI): 5.04 µM
SK-MEL-28; Homo sapiens, SK-MEL-28, MEL-28, read-out: LC50 MEL-28
  CC50: 11.3 µM
HT-29; Homo sapiens, HT-29, HT-29
  GI50: ≥ 18.8 µM
HT-29; Homo sapiens, HT-29, HT-29, cell killing (cytotoxic effect), read-out: LC50 HT-29
  CC50: 18.8 µM
HT-29; Homo sapiens, HT-29, HT-29, total growth inhibition (cytostatic effect)
  IC (TGI): 18.8 µM
LoVo
  GI50: 11.8 µM
LoVo; cell killing (cytotoxic effect), read-out: LC50 LOVO
  CC50: 18.8 µM
LoVo; [3]
  IC (TGI): 57.6 µM
LoVo-Dox; LOVO-DOX
  GI50: 0.801 µM
LoVo-Dox; LOVO-DOX, cell killing (cytotoxic effect), read-out: LC50 LOVO-DOX
  CC50: 18.8 µM
LoVo-Dox; LOVO-DOX, total growth inhibition (cytostatic effect)
  IC (TGI): 7.13 µM
DU-145; Homo sapiens, DU-145, DU-145
  GI50: 8.24 µM
DU-145; Homo sapiens, DU-145, DU-145, read-out: LC50 DU-145
  CC50: 17 µM
DU-145; Homo sapiens, DU-145, DU-145, total growth inhibition (cytostatic effect), read-out: TGI DU-145
  IC (TGI): 11.8 µM
LNCaP; LN-caP
  GI50: 0.277 µM
  IC (TGI): 1.44 µM
LNCaP; LN-caP, read-out: LC50 LN-caP
  CC50: 7.85 µM
SK-BR-3; Homo sapiens, SK-BR-3, SK-BR-3
  GI50: 2.37 µM
  IC (TGI): 10.9 µM
SK-BR-3; Homo sapiens, SK-BR-3, SK-BR-3, read-out: LC50 SK-BR-3
  CC50: 18.8 µM
IGROV; Homo sapiens
  GI50: 0.493 µM
IGROV; Homo sapiens, read-out: LC50 IGROV
  CC50: 18.8 µM
IGROV; Homo sapiens, total growth inhibition (cytostatic effect), read-out: TGI IGROV
  IC (TGI): 1.76 µM
IGROV-ET; IGROV-ET
  GI50: 0.444 µM
  IC (TGI): 1.2 µM
IGROV-ET; IGROV-ET, read-out: LC50 IGROV-ET
  CC50: 18.8 µM
PANC-1; PANC-1, PANC-1
  GI50: 2.2 µM
PANC-1; PANC-1, PANC-1, cell killing (cytotoxic effect), read-out: LC50 PANC-1
  CC50: 18.8 µM
PANC-1; PANC-1, PANC-1, total growth inhibition (cytostatic effect)
  IC (TGI): 7.94 µM
SKOV-3
  GI50: 13.7 µM
SKOV-3; SK-OV-3, SKOV-3, cell killing (cytotoxic effect), read-out: LC50 SKOV-3
  LC50 (concentration causing 50% net cell killing): 18.8 µM
SKOV-3; SK-OV-3, SKOV-3
  IC (TGI): 18.8 µM
[1]; H-MEC-1 cells, H-MEC-1, cell killing (cytotoxic effect), read-out: LC50 H-MEC-1
  LC50 (concentration giving 50% net cell killing): 5.72 µM
H-MEC-1
  GI50: 0.606 µM
  IC (TGI): 1.38 µM
